The source of these data is ChEMBL document CHEMBL1122286, “Heterocyclic oxyacetic acid diuretics: indazole, benzisothiazole, and benzisothiazole 1,1-dioxide analogues of [[7-chloro-3-(2-fluorophenyl)-1,2-benzisoxazol-6-yl]oxy]acetic acid” (1983).

Type in all cases: functional, Urine
The test system of experiment [1] is Mus musculus. Put plainly: Compound was tested for diuretic activity after oral administration of 64 mg/kg in saline-loaded mice (vehicle control value=0.05).
Experiment [2] concerns Mus musculus. Put plainly: Compound was tested for diuretic activity after oral administration of 64 mg/kg in saline-loaded mice (vehicle control value=0.6).
For experiment [3], the system named is Mus musculus. Put plainly: Compound was tested for diuretic activity per os in saline-loaded mice at 64 mg/kg. (vehicle control value=1.22).
Experiment [4] has as its system Mus musculus. Kind of experiment: Compound was tested for diuretic activity after oral administration of 64 mg/kg in saline-loaded mice (vehicle control value=0.8).
Experiment [5] has as its system Mus musculus. Kind of experiment: Compound was tested for diuretic activity after oral administration of 64 mg/kg in saline-loaded mice vehicle control value=0.72).
Experiment [6] deals with Mus musculus. Kind of experiment: Compound was tested for diuretic activity after oral administration of 64 mg/kg in saline-loaded mice (vehicle control value=0.42).
Experiment [7] relates to Mus musculus. Put plainly: Compound was tested for diuretic activity after oral administration of 64 mg/kg in saline-loaded mice (vehicle control value=0.68).
Experiment [8] deals with Mus musculus. Put plainly: Compound was tested for diuretic activity after oral administration of 64 mg/kg in saline-loaded mice (vehicle control value=0.27).
The test system of experiment [9] is Mus musculus. Kind of experiment: Compound was tested for diuretic activity after oral administration of 64 mg/kg in saline-loaded mice (vehicle control value=0.56).
Experiment [10] deals with Mus musculus. Kind of experiment: Compound was tested for diuretic activity after oral administration of 64 mg/kg in saline-loaded mice vehicle control value=0.25).
Experiment [11] concerns Mus musculus. Kind of experiment: Compound was tested for diuretic activity after oral administration of 64 mg/kg in saline-loaded mice (vehicle control value=0.3).
The test system of experiment [12] is Mus musculus. Kind of experiment: Compound was tested for diuretic activity after oral administration of 64 mg/kg in saline-loaded mice (vehicle control value=0.2).
For experiment [13], the system named is Mus musculus. Put plainly: Compound was tested for diuretic activity after oral administration of 64 mg/kg in saline-loaded mice (vehicle control value=0.1).

With `O=C(O)COc1ccc2c(-c3ccccc3F)noc2c1Cl`, in the experiment with Mus musculus [1], the Diuretic activity was determined as 10 m equiv [Na+] 5hr-1kg-1.

Take `O=C(O)COc1ccc2c(-c3ccccc3Cl)noc2c1Cl`: the Diuretic activity with Mus musculus [2] was determined as 9.1 m equiv [Na+] 5hr-1kg-1.

Consider `O=C(O)COc1ccc2c(-c3ccccc3)nsc2c1Cl`, for which the Diuretic activity in the experiment on Mus musculus [3] was 2.28 (m equiv [Na+]) 5hr-1 kg-1.

For `O=C(O)COc1ccc(C2=NS(=O)(=O)c3ccccc32)c(Cl)c1Cl`, the Diuretic activity in the experiment on Mus musculus [4] came out at 2.03 m equiv [Na+] 5hr-1kg-1.

Consider `O=C(O)COc1ccc(-c2nsc3ccccc23)c(Cl)c1Cl`, for which the Diuretic activity in the experiment with Mus musculus [5] is 1.18 m equiv [Na+] 5hr-1kg-1.

Regarding `O=C(O)COc1ccc2c(c1Cl)S(=O)(=O)N=C2c1ccccc1F`, in the experiment with Mus musculus [4], the Diuretic activity amounted to 0.18 m equiv [Na+] 5hr-1kg-1.

In the case of `Cn1nc(-c2ccc(OCC(=O)O)c(Cl)c2Cl)c2ccccc21`, the Diuretic activity in the experiment on Mus musculus [6] was determined as 0.61 m equiv [Na+] 5hr-1kg-1.

In the experiment on Mus musculus [7], `Cn1nc(-c2ccccc2Cl)c2ccc(OCC(=O)O)c(Cl)c21` returned a Diuretic activity of 2.29 m equiv [Na+] 5hr-1kg-1.

The compound `O=C(O)COc1ccc2c(-c3ccccc3F)[nH]nc2c1Cl` showed a Diuretic activity in the experiment with Mus musculus [8] of 0.45 m equiv [Na+] 5hr-1kg-1.

`O=C(O)COc1ccc(-c2[nH]nc3ccccc23)c(Cl)c1Cl`: the Diuretic activity in the experiment with Mus musculus [9] turned out to be 0.65 m equiv [Na+] 5hr-1kg-1.

As for `O=C(O)COc1ccc2c(-c3ccccc3F)nsc2c1Cl`, in the experiment with Mus musculus [10], the Diuretic activity was found to be 4.59 m equiv [Na+] 5hr-1kg-1.

Regarding `C=C(CC)C(=O)c1ccc(OCC(=O)O)c(Cl)c1Cl` [ETHACRYNIC ACID], the Diuretic activity with Mus musculus [11] is 4.14 (m equiv [Na+]) kg-1.

In the experiment on Mus musculus [12], `CC1(c2ccccc2)Cc2cc(OCC(=O)O)c(Cl)c(Cl)c2C1=O` (centres undefined) [INDACRINONE] had a Diuretic activity of 7.6 m equiv [Na+] 5hr-1kg-1.

In turn, `O=C(O)COc1ccc(C(=O)c2cccs2)c(Cl)c1Cl` [TICRYNAFEN] returned a Diuretic activity in the experiment with Mus musculus [13] of 3.31 m equiv [Na+] 5hr-1kg-1.
